# Measured values: ChEMBL document CHEMBL1268995, “The structure and antimalarial activity of dispiro-1,2,4,5-tetraoxanes derived from (+)-dihydrocarvone” (Bioorg Med Chem Lett, 2010)
# Experiments:
# Plasmodium berghei = assay: Antimalarial activity against Plasmodium berghei infected in NMRI mice (Mus musculus) assessed as reduction in parasitaemia at 100 mg/kg, perorally administered 1 day post-infection measured 3 day post-infection; format: functional; parameters: scale not given: the % may be the effect or the level left; details: route oral
# Plasmodium falciparum [1] = assay: Antimalarial activity against chloroquine-resistant Plasmodium falciparum K1; format: functional, organism-based
# Plasmodium falciparum [2] = assay: Antimalarial activity against chloroquine-sensitive Plasmodium falciparum NF54; format: functional, organism-based
# [3] = Partition coefficient, log P of the compound; format: physicochemical; details: octanol/water
Compound,Activity (Plasmodium berghei),IC50 (Plasmodium falciparum [1]),IC50 (Plasmodium falciparum [2]),logP [3]
C=C(C)[C@@H]1CC[C@@H](C)C2(C1)OOC1(C[C@H](C(=C)C)CC[C@H]1C)OO2 (stereo partly specified),99.9%,6.9 ng/mL,6.6 ng/mL,
CC(=O)[C@@H]1CC[C@@H](C)C2(C1)OOC1(C[C@H](C(C)=O)CC[C@H]1C)OO2 (stereo partly specified),63%,2.1 ng/mL,2.1 ng/mL,
CC(N)[C@@H]1CC[C@@H](C)C2(C1)OOC1(C[C@H](C(C)N)CC[C@H]1C)OO2 (stereo partly specified),99.1%,54 ng/mL,82 ng/mL,
C/C(=N\O)[C@@H]1CC[C@@H](C)C2(C1)OOC1(C[C@H](/C(C)=N/O)CC[C@H]1C)OO2 (stereo partly specified),<40%,30 ng/mL,18 ng/mL,
C[C@@H]1CC[C@H]2[C@@H](C)C(=O)O[C@@H]3O[C@@]4(C)CC[C@@H]1[C@]32OO4 [ARTEMISININ],98%,,3.4 ng/mL,2.2
C[C@@H]1CCCCC12OOC1(CCCC[C@@H]1C)OO2 (stereo partly specified) [WR-148999],99.7%,,,
